Test results as given in PubChem BioAssay AID1259407 (Chemical Carcinogenesis Research Information System (CCRIS), 2018).
Activity calls are given as the source filed them. No rule for the calls is given here.

System: CCRIS mutagenicity, Ames/micronucleus/aberration tests
Experiment: CCRIS mutagenicity studies
[1] = Test System: AMES SALMONELLA TYPHIMURIUM, Strain/Indicator: TA1535, Metabolic Activation: NONE, Method: PREINCUBATION
[2] = Test System: AMES SALMONELLA TYPHIMURIUM, Strain/Indicator: TA1537, Metabolic Activation: NONE, Method: STANDARD PLATE
[3] = Test System: AMES SALMONELLA TYPHIMURIUM, Strain/Indicator: TA98, Metabolic Activation: NONE, Method: STANDARD PLATE
[4] = Test System: AMES SALMONELLA TYPHIMURIUM, Strain/Indicator: TA100, Metabolic Activation: NONE, Method: STANDARD PLATE

Measured: mutagenic call

CC[N+]([O-])=NC
inactive: Test System: AMES SALMONELLA TYPHIMURIUM, Strain/Indicator: TA1535, Metabolic Activation: HAMSTER, LIVER, S-9, AROCLOR 1254, Method: PREINCUBATION inactive; negative | [1] inactive; negative | Test System: AMES SALMONELLA TYPHIMURIUM, Strain/Indicator: TA1535, Metabolic Activation: RAT, LIVER, S-9, AROCLOR 1254, Method: PREINCUBATION inactive; negative

[N-]=[N+]=Nc1ccc(Nc2c3ccccc3nc3ccccc23)cc1
active: [2] active; positive

OC[C@H]1OC(O[C@H]2[C@H](O)[C@@H](O)C(O[C@H]3[C@H](O)[C@@H](O)[C@@H](O)O[C@@H]3CO)O[C@@H]2CO)[C@H](O)[C@@H](O)[C@@H]1O (stereo partly drawn)
inactive: [3] inactive; negative | Test System: AMES SALMONELLA TYPHIMURIUM, Strain/Indicator: TA98, Metabolic Activation: RAT, LIVER, S-9, Method: STANDARD PLATE inactive; negative | [4] inactive; negative | Test System: AMES SALMONELLA TYPHIMURIUM, Strain/Indicator: TA100, Metabolic Activation: RAT, LIVER, S-9, Method: STANDARD PLATE inactive; negative | Test System: AMES SALMONELLA TYPHIMURIUM, Strain/Indicator: TA1535, Metabolic Activation: NONE, Method: STANDARD PLATE inactive; negative | Test System: AMES SALMONELLA TYPHIMURIUM, Strain/Indicator: TA1535, Metabolic Activation: RAT, LIVER, S-9, Method: STANDARD PLATE inactive; negative | [2] inactive; negative | Test System: AMES SALMONELLA TYPHIMURIUM, Strain/Indicator: TA1537, Metabolic Activation: RAT, LIVER, S-9, Method: STANDARD PLATE inactive; negative | Test System: E. COLI, Strain/Indicator: WP2 UVRA, Metabolic Activation: NONE, Method: STANDARD PLATE inactive; negative | Test System: E. COLI, Strain/Indicator: WP2 UVRA, Metabolic Activation: RAT, LIVER, S-9, Method: STANDARD PLATE inactive; negative

CC1(C)CC[C@]2(C(=O)O)CC[C@]3(C)C(=CC[C@@H]4[C@@]5(C)C[C@H](O)[C@H](O)[C@@](C)(C(=O)O)[C@@H]5CC[C@]43C)[C@@H]2C1
inactive: Test System: AMES SALMONELLA TYPHIMURIUM, Strain/Indicator: TA97, Metabolic Activation: NONE, Method: STANDARD PLATE inactive; negative | Test System: AMES SALMONELLA TYPHIMURIUM, Strain/Indicator: TA97, Metabolic Activation: RAT, LIVER, S-9, AROCLOR 1254, Method: STANDARD PLATE inactive; negative | [3] inactive; negative | Test System: AMES SALMONELLA TYPHIMURIUM, Strain/Indicator: TA98, Metabolic Activation: RAT, LIVER, S-9, AROCLOR 1254, Method: STANDARD PLATE inactive; negative | [4] inactive; negative | Test System: AMES SALMONELLA TYPHIMURIUM, Strain/Indicator: TA100, Metabolic Activation: RAT, LIVER, S-9, AROCLOR 1254, Method: STANDARD PLATE inactive; negative | Test System: AMES SALMONELLA TYPHIMURIUM, Strain/Indicator: TA102, Metabolic Activation: NONE, Method: STANDARD PLATE inactive; negative | Test System: AMES SALMONELLA TYPHIMURIUM, Strain/Indicator: TA102, Metabolic Activation: RAT, LIVER, S-9, AROCLOR 1254, Method: STANDARD PLATE inactive; negative

O=Cc1ccc(Cl)c(Cl)c1
inactive: Test System: AMES SALMONELLA TYPHIMURIUM, Strain/Indicator: TA97, Metabolic Activation: HAMSTER, LIVER, S-9, AROCLOR 1254 (10%), Method: PREINCUBATION inactive; negative | Test System: AMES SALMONELLA TYPHIMURIUM, Strain/Indicator: TA97, Metabolic Activation: HAMSTER, LIVER, S-9, AROCLOR 1254 (30%), Method: PREINCUBATION inactive; negative | Test System: AMES SALMONELLA TYPHIMURIUM, Strain/Indicator: TA97, Metabolic Activation: NONE, Method: PREINCUBATION inactive; negative | Test System: AMES SALMONELLA TYPHIMURIUM, Strain/Indicator: TA97, Metabolic Activation: RAT, LIVER, S-9, AROCLOR 1254 (10%), Method: PREINCUBATION inactive; negative | Test System: AMES SALMONELLA TYPHIMURIUM, Strain/Indicator: TA97, Metabolic Activation: RAT, LIVER, S-9, AROCLOR 1254 (30%), Method: PREINCUBATION inactive; negative | Test System: AMES SALMONELLA TYPHIMURIUM, Strain/Indicator: TA98, Metabolic Activation: HAMSTER, LIVER, S-9, AROCLOR 1254 (10%), Method: PREINCUBATION inactive; negative | Test System: AMES SALMONELLA TYPHIMURIUM, Strain/Indicator: TA98, Metabolic Activation: HAMSTER, LIVER, S-9, AROCLOR 1254 (30%), Method: PREINCUBATION inactive; negative | Test System: AMES SALMONELLA TYPHIMURIUM, Strain/Indicator: TA98, Metabolic Activation: NONE, Method: PREINCUBATION inactive; negative | Test System: AMES SALMONELLA TYPHIMURIUM, Strain/Indicator: TA98, Metabolic Activation: RAT, LIVER, S-9, AROCLOR 1254 (10%), Method: PREINCUBATION inactive; negative | Test System: AMES SALMONELLA TYPHIMURIUM, Strain/Indicator: TA98, Metabolic Activation: RAT, LIVER, S-9, AROCLOR 1254 (30%), Method: PREINCUBATION inactive; negative | Test System: AMES SALMONELLA TYPHIMURIUM, Strain/Indicator: TA100, Metabolic Activation: HAMSTER, LIVER, S-9, AROCLOR 1254 (10%), Method: PREINCUBATION inactive; negative | Test System: AMES SALMONELLA TYPHIMURIUM, Strain/Indicator: TA100, Metabolic Activation: HAMSTER, LIVER, S-9, AROCLOR 1254 (30%), Method: PREINCUBATION inactive; negative | Test System: AMES SALMONELLA TYPHIMURIUM, Strain/Indicator: TA100, Metabolic Activation: NONE, Method: PREINCUBATION inactive; negative | Test System: AMES SALMONELLA TYPHIMURIUM, Strain/Indicator: TA100, Metabolic Activation: RAT, LIVER, S-9, AROCLOR 1254 (10%), Method: PREINCUBATION inactive; negative | Test System: AMES SALMONELLA TYPHIMURIUM, Strain/Indicator: TA100, Metabolic Activation: RAT, LIVER, S-9, AROCLOR 1254 (30%), Method: PREINCUBATION inactive; negative | Test System: AMES SALMONELLA TYPHIMURIUM, Strain/Indicator: TA104, Metabolic Activation: HAMSTER, LIVER, S-9, AROCLOR 1254 (10%), Method: PREINCUBATION inactive; negative | Test System: AMES SALMONELLA TYPHIMURIUM, Strain/Indicator: TA104, Metabolic Activation: HAMSTER, LIVER, S-9, AROCLOR 1254 (30%), Method: PREINCUBATION inactive; negative | Test System: AMES SALMONELLA TYPHIMURIUM, Strain/Indicator: TA104, Metabolic Activation: NONE, Method: PREINCUBATION inactive; negative | Test System: AMES SALMONELLA TYPHIMURIUM, Strain/Indicator: TA104, Metabolic Activation: RAT, LIVER, S-9, AROCLOR 1254 (10%), Method: PREINCUBATION inactive; negative | Test System: AMES SALMONELLA TYPHIMURIUM, Strain/Indicator: TA104, Metabolic Activation: RAT, LIVER, S-9, AROCLOR 1254 (30%), Method: PREINCUBATION inactive; negative | Test System: AMES SALMONELLA TYPHIMURIUM, Strain/Indicator: TA1535, Metabolic Activation: HAMSTER, LIVER, S-9, AROCLOR 1254 (10%), Method: PREINCUBATION inactive; negative | Test System: AMES SALMONELLA TYPHIMURIUM, Strain/Indicator: TA1535, Metabolic Activation: HAMSTER, LIVER, S-9, AROCLOR 1254 (30%), Method: PREINCUBATION inactive; negative | [1] inactive; negative | Test System: AMES SALMONELLA TYPHIMURIUM, Strain/Indicator: TA1535, Metabolic Activation: RAT, LIVER, S-9, AROCLOR 1254 (10%), Method: PREINCUBATION inactive; negative | Test System: AMES SALMONELLA TYPHIMURIUM, Strain/Indicator: TA1535, Metabolic Activation: RAT, LIVER, S-9, AROCLOR 1254 (30%), Method: PREINCUBATION inactive; negative

C[C@]12CCc3c(ccc4cc(O)ccc34)[C@@H]1CCC2=O
inactive: Test System: UDS RAT HEPATOCYTES, Strain/Indicator: THY INCORP (18-20 HR), Metabolic Activation: NONE, Method: LIQUID SCINTILLATION COUNTING inactive; negative
